Experiments:
Experiment in all cases: relative viability (nuclei count vs DMSO), 5 days (fraction); higher = more cells survive
[1] = compound: C/C(=N\NC(=S)N1CCC1)/C2=CC=CC=N2 + Cc1cc(Nc2cc(N3CCN(C)CC3)nc(Sc3ccc(NC(=O)C4CC4)cc3)n2)n[nH]1 [Tozasertib] (partner 0.1 µM)
Method in brief: (§1)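 A single step with final 0.05% Triton X-100, 1% formaldehyde and 1 ug/ml Hoechst fixed the cells and stained nuclei 5 days after treatment. Lung cancer cell lines in 1536-well plates had been treated by pin tool the day after seeding with one drug alone or a fixed anchor-drug dose plus five library-drug doses (not always all listed) in √10 steps, and nuclei were counted on 4× images. Relative viability is the ratio of nuclei in treated wells to nuclei in vehicle wells, taken as the median of duplicate plates.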

[2] = compound: C/C(=N\NC(=S)N1CCC1)/C2=CC=CC=N2 + CC1(C)CCC(c2ccc(Cl)cc2)=C(CN2CCN(c3ccc(C(=O)NS(=O)(=O)c4ccc(N[C@H](CCN5CCOCC5)CSc5ccccc5)c(S(=O)(=O)C(F)(F)F)c4)cc3)CC2)C1 [Navitoclax] (partner 0.5 µM)
Method in brief: as §1

[3] = compound: C/C(=N\NC(=S)N1CCC1)/C2=CC=CC=N2 + O=C(CCCCCCC(=O)Nc1ccccc1)NO [Vorinostat] (partner 1 µM)
Method in brief: as §1

[4] = compound: C/C(=N\NC(=S)N1CCC1)/C2=CC=CC=N2 + C[C@@H](Oc1cc(-c2cnn(C3CCNCC3)c2)cnc1N)c1c(Cl)ccc(F)c1Cl [Crizotinib] (partner 1 µM)
Method in brief: as §1

Cell Line | relative viability ([1]; first compound 0.05 µM) | relative viability ([1]; first compound 0.1581 µM) | relative viability ([1]; first compound 0.5 µM) | relative viability ([1]; first compound 1.581 µM) | relative viability ([1]; first compound 5 µM) | relative viability ([2]; first compound 0.05 µM) | relative viability ([2]; first compound 0.1581 µM) | relative viability ([2]; first compound 0.5 µM) | relative viability ([2]; first compound 1.581 µM) | relative viability ([2]; first compound 5 µM) | relative viability ([3]; first compound 0.05 µM) | relative viability ([3]; first compound 0.1581 µM) | relative viability ([3]; first compound 0.5 µM) | relative viability ([3]; first compound 1.581 µM) | relative viability ([3]; first compound 5 µM) | relative viability ([4]; first compound 0.05 µM) | relative viability ([4]; first compound 0.1581 µM) | relative viability ([4]; first compound 0.5 µM) | relative viability ([4]; first compound 1.581 µM) | relative viability ([4]; first compound 5 µM)
CAL-12T | 0.128 | 0.12 | 0.131 | 0.107 | 0.113 | 0.168 | 0.139 | 0.171 | 0.144 | 0.118 | 0.0882 | 0.112 | 0.127 | 0.101 | 0.114 | 0.106 | 0.0871 | 0.12 | 0.103 | 0.0896
EPLC-272H | 0.0738 | 0.0936 | 0.118 | 0.0848 | 0.114 | 0.108 | 0.356 | 0.138 | 0.125 | 0.151 | 0.0931 | 0.159 | 0.149 | 0.0509 | 0.107 | 0.0969 | 0.187 | 0.121 | 0.126 | 0.171
NCI-H2405 | 0.24 | 0.286 | 0.266 | 0.239 | 0.253 | 0.0935 | 0.0799 | 0.114 | 0.256 | 0.246 | 0.241 | 0.267 | 0.252 | 0.217 | 0.222 | 0.26 | 0.29 | 0.307 | 0.25 | 0.258
HCC-15 | 0.0765 | 0.0513 | 0.112 | 0.0654 | 0.0641 | 0.198 | 0.392 | 0.0695 | 0.092 | 0.0784 | 0.204 | 0.275 | 0.145 | 0.139 | 0.116 | 0.21 | 0.412 | 0.0685 | 0.073 | 0.0642
PC-3 [JPC-3] | 0.612 | 0.474 | 0.3 | 0.281 | 0.241 | 0.42 | 0.855 | 0.281 | 0.253 | 0.285 | 0.338 | 0.436 | 0.357 | 0.269 | 0.196 | 0.594 | 0.984 | 0.361 | 0.301 | 0.252
NCI-H1944 | 0.248 | 0.181 | 0.127 | 0.0988 | 0.107 | 0.684 | 0.988 | 0.392 | 0.189 | 0.18 | 0.17 | 0.154 | 0.137 | 0.126 | 0.135 | 0.737 | 0.909 | 0.221 | 0.164 | 0.149
HARA | 0.0547 | 0.0677 | 0.0627 | 0.0539 | 0.0645 | 0.361 | 0.165 | 0.212 | 0.124 | 0.11 | 0.0948 | 0.381 | 0.0375 | 0.076 | 0.0809 | 0.361 | 0.227 | 0.152 | 0.115 | 0.0965
NCI-H2126 | 0.174 | 0.167 | 0.193 | 0.162 | 0.19 | 0.328 | 0.828 | 0.265 | 0.281 | 0.27 | 0.184 | 0.211 | 0.197 | 0.186 | 0.168 | 0.671 | 1.01 | 0.226 | 0.187 | 0.146
LXF-289 | 0.126 | 0.108 | 0.114 | 0.124 | 0.0738 | 0.431 | 0.361 | 0.248 | 0.193 | 0.108 | 0.22 | 0.185 | 0.188 | 0.151 | 0.104 | 0.417 | 0.287 | 0.24 | 0.168 | 0.121
NCI-H460 | 0.0816 | 0.0449 | 0.0431 | 0.0348 | 0.0095 | 0.0277 | 0.0183 | 0.0198 | 0.0147 | 0.0062 | 0.0355 | 0.029 | 0.0302 | 0.03 | 0.0178 | 0.0177 | 0.0116 | 0.014 | 0.0184 | 0.0064
NCI-H2170 | 0.659 | 0.334 | 0.197 | 0.113 | 0.141 | 0.581 | 0.543 | 0.168 | 0.207 | 0.189 | 0.267 | 0.195 | 0.161 | 0.155 | 0.0916 | 1.12 | 1.09 | 0.269 | 0.183 | 0.162
NCI-H2009 | 0.103 | 0.148 | 0.143 | 0.183 | 0.149 | 0.1 | 0.136 | 0.0927 | 0.158 | 0.131 | 0.0755 | 0.107 | 0.129 | 0.103 | 0.0974 | 0.112 | 0.131 | 0.124 | 0.149 | 0.0903

Reference: the supplement of paper PMC10307832
